For test [1], the system named is EMT6 murine breast carcinoma. The experiment in a line: EMT6 primary breast tumor model, ICI combined with SB-3CT. The following applies: combination with either anti-PD-1 or anti-PD-L1 vs anti-PD-1 or anti-PD-L1 monotherapy. It counts as in vivo, BALB/c mice. The protocol:
Control mice are injected with IgG antibody and vehicle (10% DMSO in normal saline). Mice receiving either anti-PD-1 or anti-PD-L1 monotherapies are also injected with vehicle (10% DMSO in normal saline). Mice receiving SB3-CT monotherapy are also injected with IgG control antibodies. Tumor growth and mouse survival are monitored. At endpoint (when tumors reach a size of ˜1500 mm^3), mice are sacrificed.

The test system of the next test is cancer patients. The settings on record: pooled data from clinical studies; cited from earlier work.

As to `O=S(=O)(CC1CS1)c1ccc(Oc2ccccc2)cc1` (centres unmarked) [SB-3CT, 2-(((4-phenoxyphenyl)sulfonyl)methyl)thiirane], in test [1], the increasing survival result was “more effective” and the reducing tumor size entry is reported as “more effective”.

Consider ipilimumab, for which, in the test with cancer patients, the “duration of clinical response” value is listed as “around 3 years”; the “duration of clinical response, can last up to” value was “up to 10 years”; the “subset of patients in which the therapeutic effect is observed” value is recorded as around 20%.

(Values after US11977075B2, “Method of predicting personalized response to cancer treatment with immune checkpoint inhibitors, method of treating cancer, and kit therefor” (Rappaport Family Institute for Research in the Medical …, priority 2017, dated 2024).)
